This note sets out measurements from ChEMBL document CHEMBL1129035, “Tyrosine kinase inhibitors. 9. Synthesis and evaluation of fused tricyclic quinazoline analogues as ATP site inhibitors of the tyrosine kinase activity of the epidermal growth factor receptor” (J Med Chem, 1996).

Each structure is given as a SMILES string.

Assay [1] deals with T1, Epidermal growth factor receptor (Homo sapiens, UniProt P00533). The assay can be described thus: Inhibition of tyrosine kinase activity of Epidermal growth factor receptor from human A431 carcinoma cells.
The target in assay [2] is T1, Epidermal growth factor receptor. Put plainly: Inhibition of tyrosine kinase activity of Epidermal growth factor receptor from human A431 cells.
The target in a further assay is Protein kinase C (PKC). Put plainly: Inhibition of Protein kinase C. Type of assay: protein assay.
The target of another assay is Insulin receptor (Homo sapiens, UniProt P06213). Put plainly: Inhibition of Insulin receptor.
Assay [3] deals with Platelet-derived growth factor receptor (Mus musculus, UniProt P05622+P26618). The assay can be described thus: Inhibition of PDGF-mediated mitogenesis in Swiss 3T3 cells. Type of assay: functional, cell-based.
Assay [4] deals with Fibroblast growth factor receptor (Mus musculus, UniProt P21803+Q03142+P16092+Q61851). The assay can be described thus: Inhibition of FGF-mediated mitogenesis in Swiss 3T3 cells. Type of assay: functional, cell-based.
In assay [5] the target is Fibroblast growth factor receptor (Homo sapiens, UniProt P22607+P11362+P22455+P21802). The assay can be described thus: Inhibition of Fibroblast growth factor receptor. Type of assay: protein assay.
Assay [6] has as its target Proto-oncogene tyrosine-protein kinase Src (Homo sapiens, UniProt P12931). Put plainly: Inhibition of c-src enzyme.
The nature of assay [7]: Inhibition of Platelet-derived growth factor receptor.
Assay [8] is described as follows: Inhibitory activity against v-src enzyme.

T1 sequence (P00533 whole entry): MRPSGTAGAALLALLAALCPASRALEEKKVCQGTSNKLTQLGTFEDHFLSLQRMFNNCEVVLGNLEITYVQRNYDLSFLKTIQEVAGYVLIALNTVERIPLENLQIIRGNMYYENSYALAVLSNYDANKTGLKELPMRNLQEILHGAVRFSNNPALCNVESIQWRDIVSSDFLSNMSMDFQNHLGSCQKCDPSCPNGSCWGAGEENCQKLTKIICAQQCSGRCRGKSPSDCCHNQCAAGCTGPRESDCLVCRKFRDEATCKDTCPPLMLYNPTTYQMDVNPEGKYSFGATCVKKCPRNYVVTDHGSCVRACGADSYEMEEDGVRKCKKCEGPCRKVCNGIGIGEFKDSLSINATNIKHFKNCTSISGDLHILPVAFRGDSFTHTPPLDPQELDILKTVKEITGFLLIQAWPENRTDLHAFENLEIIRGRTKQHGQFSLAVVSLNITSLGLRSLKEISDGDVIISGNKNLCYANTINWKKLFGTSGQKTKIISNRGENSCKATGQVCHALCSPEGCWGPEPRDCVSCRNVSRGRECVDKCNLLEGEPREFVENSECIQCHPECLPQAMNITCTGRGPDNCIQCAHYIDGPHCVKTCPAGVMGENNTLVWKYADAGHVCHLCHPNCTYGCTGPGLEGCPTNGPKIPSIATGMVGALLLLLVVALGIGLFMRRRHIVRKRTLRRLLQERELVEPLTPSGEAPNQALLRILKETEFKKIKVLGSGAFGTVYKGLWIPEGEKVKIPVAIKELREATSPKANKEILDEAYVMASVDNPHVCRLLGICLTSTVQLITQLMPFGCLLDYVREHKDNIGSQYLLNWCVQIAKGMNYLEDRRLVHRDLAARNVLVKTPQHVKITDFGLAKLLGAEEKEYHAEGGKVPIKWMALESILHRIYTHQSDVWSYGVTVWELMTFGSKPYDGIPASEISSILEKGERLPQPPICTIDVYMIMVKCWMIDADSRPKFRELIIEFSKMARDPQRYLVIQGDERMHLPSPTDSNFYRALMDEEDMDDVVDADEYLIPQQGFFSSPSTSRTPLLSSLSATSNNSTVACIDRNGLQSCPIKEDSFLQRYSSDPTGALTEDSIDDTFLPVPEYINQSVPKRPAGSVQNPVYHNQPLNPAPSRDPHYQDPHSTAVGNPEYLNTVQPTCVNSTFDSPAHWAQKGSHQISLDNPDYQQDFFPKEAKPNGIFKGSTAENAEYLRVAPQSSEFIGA
Sequence of Proto-oncogene tyrosine-protein kinase Src (P12931 2-536 limits assumed): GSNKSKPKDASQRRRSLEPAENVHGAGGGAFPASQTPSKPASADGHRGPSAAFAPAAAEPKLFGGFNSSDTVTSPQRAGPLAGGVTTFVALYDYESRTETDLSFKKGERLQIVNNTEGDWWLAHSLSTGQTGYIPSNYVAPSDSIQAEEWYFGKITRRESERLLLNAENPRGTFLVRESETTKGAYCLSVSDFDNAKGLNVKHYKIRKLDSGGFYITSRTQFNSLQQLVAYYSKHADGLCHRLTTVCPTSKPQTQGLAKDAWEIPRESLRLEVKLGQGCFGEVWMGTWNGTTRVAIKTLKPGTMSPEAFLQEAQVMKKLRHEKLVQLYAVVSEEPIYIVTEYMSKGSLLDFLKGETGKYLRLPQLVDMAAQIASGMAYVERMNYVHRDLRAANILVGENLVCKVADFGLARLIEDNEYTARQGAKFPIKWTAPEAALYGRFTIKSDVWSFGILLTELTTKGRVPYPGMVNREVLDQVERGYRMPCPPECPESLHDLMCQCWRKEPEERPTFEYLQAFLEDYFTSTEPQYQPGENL
Sequence of Insulin receptor (P06213 28-758 limits assumed): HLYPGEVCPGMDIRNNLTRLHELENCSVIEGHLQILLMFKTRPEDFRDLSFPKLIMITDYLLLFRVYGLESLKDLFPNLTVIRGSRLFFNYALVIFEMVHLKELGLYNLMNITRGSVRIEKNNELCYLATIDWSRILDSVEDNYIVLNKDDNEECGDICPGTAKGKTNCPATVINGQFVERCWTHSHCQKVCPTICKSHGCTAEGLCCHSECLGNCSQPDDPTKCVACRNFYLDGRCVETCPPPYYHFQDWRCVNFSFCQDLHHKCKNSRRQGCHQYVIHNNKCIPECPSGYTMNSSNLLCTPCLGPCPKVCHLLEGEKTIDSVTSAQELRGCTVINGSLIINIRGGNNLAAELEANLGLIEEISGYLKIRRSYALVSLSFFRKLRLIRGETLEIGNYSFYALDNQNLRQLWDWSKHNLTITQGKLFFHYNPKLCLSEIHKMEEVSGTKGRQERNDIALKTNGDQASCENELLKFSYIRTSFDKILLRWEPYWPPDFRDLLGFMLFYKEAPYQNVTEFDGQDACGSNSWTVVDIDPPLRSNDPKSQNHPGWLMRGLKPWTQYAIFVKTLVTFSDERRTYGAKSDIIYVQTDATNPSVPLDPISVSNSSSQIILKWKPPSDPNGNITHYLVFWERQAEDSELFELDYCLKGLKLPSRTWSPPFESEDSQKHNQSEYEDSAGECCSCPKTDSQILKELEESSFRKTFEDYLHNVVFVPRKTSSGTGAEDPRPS
Sequence of Insulin receptor (P06213 763-1382 limits assumed): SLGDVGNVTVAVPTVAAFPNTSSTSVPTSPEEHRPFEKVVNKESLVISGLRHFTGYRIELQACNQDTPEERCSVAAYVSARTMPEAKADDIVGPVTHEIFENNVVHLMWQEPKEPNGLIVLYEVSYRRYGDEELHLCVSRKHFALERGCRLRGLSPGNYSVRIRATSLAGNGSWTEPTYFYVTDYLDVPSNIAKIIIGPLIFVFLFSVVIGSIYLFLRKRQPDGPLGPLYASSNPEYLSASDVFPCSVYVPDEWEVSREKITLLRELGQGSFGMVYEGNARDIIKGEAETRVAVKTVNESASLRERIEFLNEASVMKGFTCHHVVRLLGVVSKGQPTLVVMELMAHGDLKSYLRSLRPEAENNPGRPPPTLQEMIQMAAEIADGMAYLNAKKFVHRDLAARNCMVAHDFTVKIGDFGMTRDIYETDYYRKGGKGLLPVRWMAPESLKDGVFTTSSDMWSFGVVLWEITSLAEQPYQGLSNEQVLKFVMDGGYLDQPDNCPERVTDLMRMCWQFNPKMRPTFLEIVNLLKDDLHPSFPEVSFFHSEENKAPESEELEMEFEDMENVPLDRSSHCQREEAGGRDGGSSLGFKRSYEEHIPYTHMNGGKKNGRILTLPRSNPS

The term IC50 denotes the concentration that gives 50% inhibition. The low end stands for greater potency, the high end for weaker potency. On to `Brc1cccc(Nc2ncnc3ccc4cc[nH]c4c23)c1`, for which the IC50 in [1] was found to be 1.24 nM. This counts as single-digit nanomolar. The same measure, in the same setting: under `Brc1cccc(Nc2ncnc3c2ccc2[nH]cnc23)c1` stands 272 nM. Turning to `Brc1cccc(Nc2ncnc3cc4[nH]nnc4cc23)c1`, it took 4.1 nM to reach half-maximal inhibition in assay [2] (IC50). On the same count and under the same terms, the figure for `CN(C)CCn1cnc2cc3c(Nc4cccc(Br)c4)ncnc3cc21` is 22 nM. Regarding `Cn1cnc2cc3ncnc(Nc4cccc(Br)c4)c3cc21`, in assay [1], the 50% inhibitory concentration (IC50) was 0.01 nM. In [2], `CN(C)CCn1cnc2cc3ncnc(Nc4cccc(Br)c4)c3cc21` gave an IC50 of 1.32 nM. Molecule `Brc1cccc(Nc2ncnc3cc4ncsc4cc23)c1` gave an IC50 in assay [1] of 44 nM.

Turning to `Brc1cccc(Nc2ncnc3cc4cn[nH]c4cc23)c1`, the midpoint of inhibition in assay [2], the IC50, lay at 0.34 nM. This counts as sub-nanomolar. Still for that read-out and setting: under `Brc1cccc(Nc2ncnc3cc4[nH]ncc4cc23)c1` stands 0.44 nM. On to `Brc1cccc(Nc2ncnc3cc4[nH]ccc4cc23)c1`, for which the midpoint of inhibition in assay [1], the IC50, lay at 0.44 nM.

Turning to `Cc1nc2cc3ncnc(Nc4cccc(Br)c4)c3cc2[nH]1`, the IC50 in [1] amounted to 0.29 nM. With `CN(C)CCn1cnc2c(Cl)c3c(Nc4cccc(Br)c4)ncnc3cc21`, in assay [2], 203 nM corresponded to half-maximal inhibition (IC50). `Brc1cccc(Nc2ncnc3cc4ccccc4cc23)c1`: in assay [1], it took 0.003 nM to reach half-maximal inhibition (IC50). This lies in the picomolar range.

Take `Brc1cccc(Nc2ncnc3cc4[nH]cnc4cc23)c1`: the IC50 (at Protein kinase C (PKC); against Insulin receptor; in [3]; in assay [4]; in assay [5]; in assay [6]) was more than 50 µM in each case. Further, the IC50 in assay [7] and in assay [8] was more than 50 µM in each case.
